Assay [1] concerns the target purified recombinant human JAK2 protein (Homo sapiens (Human), UniProt O60674). The experiment in a line: JAK2 kinase-inhibiting activity (mobility shift, LabChip EZ Reader II). Type of assay: biochemical. To be noted: ATP 10 μM, 25° C., 80 minutes. The procedure: 2) Measurement of JAK2 Kinase-Inhibiting Activity
The activity of the compound of the present invention to inhibit the activity of JAK2 kinase was measured.
Among materials for the measurement of this inhibiting activity, a substrate peptide and a kinase protein were acquired as follows. As such a substrate peptide, FL-Peptide 22 (Perkin Elmer Corp.) was purchased. As such a kinase protein, a purified recombinant human JAK2 protein (Carna Biosciences, Inc.) was purchased.
(§1) The method for measuring the inhibiting activity is as follows. First, a serial dilution of the compound of the present invention was prepared by the same method as that described in the above section regarding JAK1. This serial dilution solution (the final concentration of DMSO upon a kinase reaction: 5.0%) or DMSO (final concentration: 5.0%) was mixed with a solution comprising the substrate peptide (final concentration: 1 μM), magnesium chloride (final concentration: 10 mM) and ATP (final concentration: 10 μM) in a buffer for kinase reaction (15 mM Tris (pH 7.5), 2 mM dithiothreitol and 0.01% Tween 20). Thereafter, a JAK2 protein was further added to the mixed solution, and the obtained mixture was then incubated at 25° C. for 80 minutes to carry out a kinase reaction. To the reaction solution, EDTA was added to a final concentration of 30 mM, so as to terminate the reaction. After termination of the reaction, the measurement and the data analysis were carried out by the same methods as those described in the above section regarding JAK1.

Assay [2] has as its target purified recombinant human JAK1 protein (Homo sapiens (Human), UniProt P23458). In words: JAK1 kinase-inhibiting activity (mobility shift, LabChip EZ Reader II). Type of assay: biochemical. To be noted: ATP 75 μM, 25° C., 120 minutes. As to the method:
1) Measurement of JAK1 Kinase-Inhibiting Activity
The activity of the compound of the present invention to inhibit the activity of JAK1 kinase was measured.
Among materials for the measurement of this inhibiting activity, a substrate peptide and a kinase protein were acquired as follows. As such a substrate peptide, a substrate peptide for QSS Assist JAK1-MSA assay kit (Carna Biosciences, Inc.) was purchased. As such a kinase protein, a purified recombinant human JAK1 protein (Carna Biosciences, Inc.) was purchased.
The method for measuring the inhibiting activity is as follows. First, the compounds of the present invention were each dissolved in dimethyl sulfoxide (DMSO), and a serial dilution was then prepared using DMSO. Subsequently, a serial dilution solution of the compound (the final concentration of DMSO upon a kinase reaction: 5.0%) or DMSO (final concentration: 5.0%) was mixed with a solution comprising the substrate peptide (final concentration: 1 μM), magnesium chloride (final concentration: 5 mM) and ATP (final concentration: 75 μM) in a buffer for kinase reaction (20 mM HEPES (pH 7.5), 2 mM dithiothreitol and 0.01% Triton X-100). Thereafter, a JAK1 protein was further added to the mixed solution, and the obtained mixture was then incubated at 25° C. for 120 minutes to carry out a kinase reaction. To the reaction solution, EDTA was added to a final concentration of 30 mM, so as to terminate the reaction. Finally, using LabChip EZ Reader II (Perkin Elmer Corp.), an unphosphorylated substrate peptide (S) and a phosphorylated peptide (P) were subjected to microchannel capillary electrophoresis, so that the two peptides were separated from each other and were then detected. The amount of a phosphorylation reaction was obtained based on the heights of the peaks of S and P, and the concentration of the compound capable of inhibiting 50% of the phosphorylation reaction was defined as an IC50 value (nM).

In assay [3] the test system is human PBMC. In words: IL-2-dependent growth of human peripheral blood mononuclear cells (CellTiter-Glo). It is filed as cell-based. To be noted: 48 h, IL-2 2 ng/mL stimulation, 2 days. As to the method: The activity of the compound of the present invention to inhibit the IL-2-dependent growth reaction of human PBMC, which is caused by JAK3, was measured (Arthritis Rheum. 2010; 62(8): 2283-93).
Using a medium comprising 10 μg/mL PHA-M (Sigma) (which is RPMI-1640 (Sigma) comprising 10% human serum type AB (MP Biomedicals)), human PBMC (C.T.L.) (cell density: 1×10^6 cells/mL) was cultured at 37° C. in a culture vessel comprising 5% carbon dioxide for 3 days. Thereafter, the culture was washed with RPMI-1640 four times, and a medium (RPMI-1640 comprising 10% human serum type AB) was then added to the resultant culture to prepare a cell suspension. The cells (1×10^4 cells per well) and the serially diluted compound of the present invention were added to each well of a 96-well U-bottom microplate, and the thus obtained mixture was then cultured at 37° C. in a culture vessel comprising 5% carbon dioxide for 30 minutes. After completion of the culture, recombinant human IL-2 (Peprotech) was added to the culture to a final concentration of 2 ng/mL, and the obtained mixture was then stirred at 37° C. in a culture vessel comprising 5% carbon dioxide for 2 days (1×10^4 cells/100 μl/each well). After completion of the culture, the resultant was left at a room temperature for 30 minutes, and 100 μl of CellTiter-Glo Luminescent Cell Viability Assay (Promega) was then added to the resultant, followed by stirring it. Thereafter, the reaction mixture was left for 10 minutes, and the amount of a luminescence derived from living cells in each well was then measured using a microplate reader (TECAN). The inhibition rate of the present compound to the cell growth caused by IL-2 stimulation was calculated, and the concentration of the compound capable of inhibiting 50% of the cell growth was defined as an IC50 value (nM).

In assay [4] the target is purified recombinant human JAK3 protein (Homo sapiens (Human), UniProt P52333). The experiment in a line: JAK3 kinase-inhibiting activity (mobility shift, LabChip EZ Reader II). Type of assay: biochemical. To be noted: ATP 5 μM, 25° C., 80 minutes. The procedure:
3) Measurement of JAK3 Kinase-Inhibiting Activity
The activity of the compound of the present invention to inhibit the activity of JAK3 kinase was measured.
Among materials for the measurement of this inhibiting activity, a substrate peptide and a kinase protein were acquired as follows. As such a substrate peptide, a substrate peptide for QSS Assist JAK3-MSA assay kit (Carna Biosciences, Inc.) was purchased. As such a kinase protein, a purified recombinant human JAK3 protein (Carna Biosciences, Inc.) was purchased.
as §1, with “5” for “10”, “(20” for “(15”, “HEPES” for “Tris”, “Triton X-100).” for “Tween 20).”, “JAK3” for “JAK2”

In assay [5] the test system is IL-2-induced IFN-γ production. In words: Mouse IL-2-induced IFN-γ production test. It is filed as in vivo. To be noted: oral 1 mg/kg and 3 mg/kg, serum 3 hours after IL-2, BALB/c mice. The procedure: The inhibitory activity of the compound of the present invention and the compounds of comparative examples on mouse IL-2-induced IFN-γ production caused by JAK3 was measured (Arthritis Rheum. 2010; 62 (8): 2283-93, Inflammation Research 2015; 64 (1): 41-51).
Seven-week-old male BALB/c mice (Charles River Japan) were divided into five groups (6 mice per group), namely, a vehicle group, a Compound 7 (1 mpk) group, a Compound 7 (3 mpk) group, a Comparative Example 12 (1 mpk) group, and a Comparative Example 12 (3 mpk) group. Compound 7 and the compound of Comparative Example 12 were each administered to the 1 mpk group and the 3 mpk group via oral administration at doses of 1 mg/kg and 3 mg/kg, respectively. […] Three hours after administration of IL-2, blood was collected from all of the five groups, and the IFN-γ concentration in the serum was measured using BD In Vivo Capture Assay for Mouse IFN-γ (BD Biosciences). The relative amount of IFN-γ generated by IL-2 stimulation was calculated according to the following calculation formula: Relative amount of IFN-γ=(IFN-γ concentration of each group)×100/(IFN-γ concentration of vehicle group), and the results are shown in FIG. 1 (mean value±standard error: regarding vs Vehicle, Dunnett test, *: p<0.05, ***: p<0.001; regarding vs Comparative Example 12 (3 mpk), Student t-test, ##: p<0.01).

Each structure is given as a SMILES string.

Usually IC50 stands for the concentration that inhibits the measured activity by half.

Sequence of purified recombinant human JAK2 protein (O60674 whole entry): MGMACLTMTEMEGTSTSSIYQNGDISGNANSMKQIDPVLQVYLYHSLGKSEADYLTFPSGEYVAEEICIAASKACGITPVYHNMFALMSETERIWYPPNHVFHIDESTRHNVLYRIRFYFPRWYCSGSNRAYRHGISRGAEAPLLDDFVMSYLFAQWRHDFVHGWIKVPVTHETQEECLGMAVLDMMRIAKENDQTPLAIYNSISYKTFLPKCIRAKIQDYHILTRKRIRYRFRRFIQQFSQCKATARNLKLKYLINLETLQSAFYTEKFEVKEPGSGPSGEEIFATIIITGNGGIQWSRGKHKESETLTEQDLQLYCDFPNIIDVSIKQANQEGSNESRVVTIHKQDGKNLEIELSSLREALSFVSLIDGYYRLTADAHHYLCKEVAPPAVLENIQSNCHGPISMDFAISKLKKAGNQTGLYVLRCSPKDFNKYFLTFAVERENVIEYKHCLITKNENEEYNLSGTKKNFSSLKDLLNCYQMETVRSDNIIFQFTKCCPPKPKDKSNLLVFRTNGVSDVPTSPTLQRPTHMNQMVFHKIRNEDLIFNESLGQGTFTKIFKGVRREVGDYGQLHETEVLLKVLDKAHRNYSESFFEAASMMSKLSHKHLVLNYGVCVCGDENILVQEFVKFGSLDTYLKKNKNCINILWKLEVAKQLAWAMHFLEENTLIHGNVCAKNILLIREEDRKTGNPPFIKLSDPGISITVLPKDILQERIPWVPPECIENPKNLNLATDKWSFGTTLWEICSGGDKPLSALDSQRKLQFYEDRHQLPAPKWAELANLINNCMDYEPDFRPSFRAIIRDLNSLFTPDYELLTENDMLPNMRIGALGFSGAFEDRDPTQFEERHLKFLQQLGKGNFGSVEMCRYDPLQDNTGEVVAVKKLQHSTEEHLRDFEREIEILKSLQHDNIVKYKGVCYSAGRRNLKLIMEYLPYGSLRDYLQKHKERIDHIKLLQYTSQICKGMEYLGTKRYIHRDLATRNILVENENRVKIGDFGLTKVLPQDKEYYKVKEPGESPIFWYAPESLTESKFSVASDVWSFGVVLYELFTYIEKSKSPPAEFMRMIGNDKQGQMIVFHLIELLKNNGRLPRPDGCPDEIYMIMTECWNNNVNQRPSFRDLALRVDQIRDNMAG
Sequence of purified recombinant human JAK3 protein (P52333 whole entry): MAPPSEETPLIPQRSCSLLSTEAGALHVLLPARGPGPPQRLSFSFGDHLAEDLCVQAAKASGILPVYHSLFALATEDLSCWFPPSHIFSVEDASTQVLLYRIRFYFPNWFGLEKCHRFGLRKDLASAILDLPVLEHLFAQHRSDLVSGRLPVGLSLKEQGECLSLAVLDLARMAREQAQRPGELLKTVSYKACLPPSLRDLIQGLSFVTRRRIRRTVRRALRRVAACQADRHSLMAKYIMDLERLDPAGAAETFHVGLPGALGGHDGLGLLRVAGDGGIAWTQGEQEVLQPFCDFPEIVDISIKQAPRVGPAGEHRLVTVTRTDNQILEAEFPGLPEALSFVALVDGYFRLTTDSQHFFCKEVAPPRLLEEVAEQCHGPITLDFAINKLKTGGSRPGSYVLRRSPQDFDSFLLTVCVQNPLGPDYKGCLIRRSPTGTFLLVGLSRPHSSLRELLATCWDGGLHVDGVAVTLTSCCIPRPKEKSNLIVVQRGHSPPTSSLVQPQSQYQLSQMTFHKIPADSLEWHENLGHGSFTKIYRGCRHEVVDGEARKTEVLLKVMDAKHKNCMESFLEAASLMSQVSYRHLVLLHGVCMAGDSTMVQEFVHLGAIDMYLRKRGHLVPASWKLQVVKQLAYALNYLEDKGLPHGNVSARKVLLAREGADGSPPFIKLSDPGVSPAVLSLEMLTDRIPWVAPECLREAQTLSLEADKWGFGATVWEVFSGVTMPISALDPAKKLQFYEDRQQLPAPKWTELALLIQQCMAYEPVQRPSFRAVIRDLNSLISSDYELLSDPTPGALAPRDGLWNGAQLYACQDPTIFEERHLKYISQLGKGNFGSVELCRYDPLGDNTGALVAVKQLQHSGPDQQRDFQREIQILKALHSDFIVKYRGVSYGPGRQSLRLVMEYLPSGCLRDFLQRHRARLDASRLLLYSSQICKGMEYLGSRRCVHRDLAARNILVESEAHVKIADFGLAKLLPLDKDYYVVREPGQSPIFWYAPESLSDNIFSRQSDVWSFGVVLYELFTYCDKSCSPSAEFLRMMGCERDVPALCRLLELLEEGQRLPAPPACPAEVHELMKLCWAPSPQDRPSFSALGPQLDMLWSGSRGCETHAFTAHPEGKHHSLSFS
Sequence of purified recombinant human JAK1 protein (P23458 whole entry): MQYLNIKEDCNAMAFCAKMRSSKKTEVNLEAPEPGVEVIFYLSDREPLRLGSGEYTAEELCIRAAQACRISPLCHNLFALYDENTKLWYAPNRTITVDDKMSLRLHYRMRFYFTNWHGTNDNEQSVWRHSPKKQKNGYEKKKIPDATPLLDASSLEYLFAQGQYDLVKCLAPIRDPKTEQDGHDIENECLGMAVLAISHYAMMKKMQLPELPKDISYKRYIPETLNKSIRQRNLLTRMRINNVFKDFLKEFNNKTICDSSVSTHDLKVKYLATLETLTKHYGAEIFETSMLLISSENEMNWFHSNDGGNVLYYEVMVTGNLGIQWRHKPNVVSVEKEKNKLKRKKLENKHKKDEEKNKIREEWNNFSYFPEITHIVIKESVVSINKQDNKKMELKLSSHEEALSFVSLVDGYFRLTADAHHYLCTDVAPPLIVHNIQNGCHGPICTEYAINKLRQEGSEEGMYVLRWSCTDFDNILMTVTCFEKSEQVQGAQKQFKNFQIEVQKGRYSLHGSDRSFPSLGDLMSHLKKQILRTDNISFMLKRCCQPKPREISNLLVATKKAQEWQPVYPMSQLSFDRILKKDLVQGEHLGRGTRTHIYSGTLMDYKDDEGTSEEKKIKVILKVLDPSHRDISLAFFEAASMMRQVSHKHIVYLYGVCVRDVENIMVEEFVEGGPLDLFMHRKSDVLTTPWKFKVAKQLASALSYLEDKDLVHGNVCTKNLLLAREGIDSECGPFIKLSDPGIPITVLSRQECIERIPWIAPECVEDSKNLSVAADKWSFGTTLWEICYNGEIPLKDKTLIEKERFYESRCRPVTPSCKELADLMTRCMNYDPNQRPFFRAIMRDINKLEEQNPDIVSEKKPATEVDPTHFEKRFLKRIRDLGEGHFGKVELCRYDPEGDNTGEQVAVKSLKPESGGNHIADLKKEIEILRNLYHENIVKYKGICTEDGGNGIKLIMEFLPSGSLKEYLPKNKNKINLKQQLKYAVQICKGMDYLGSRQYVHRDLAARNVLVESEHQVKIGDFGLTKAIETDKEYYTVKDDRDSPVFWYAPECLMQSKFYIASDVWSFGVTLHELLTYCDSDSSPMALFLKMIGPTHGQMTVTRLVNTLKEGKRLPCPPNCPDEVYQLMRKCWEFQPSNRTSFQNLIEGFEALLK

Turning to `C=CC(=O)NC1CC=C(c2ncnc3[nH]cc(-c4ccccc4)c23)C1` (stereo not drawn) [Compound 9, N-(3-(5-Phenyl-7H-pyrrolo[2,3-d]pyrimidin-4-yl)cyclopent-3-en-1-yl)acrylamide], the IC50 was 880 nM in assay [1], 2100 nM in assay [2], 99 nM in assay [3] and less than 0.3 nM in assay [4].
As for `C=CC(=O)NC1C=C(c2ncnc3[nH]cc(-c4ccsc4)c23)CCC1` (stereo not drawn) [Compound 14, N-(3-(5-(Thiophen-3-yl)-7H-pyrrolo[2,3-d]pyrimidin-4-yl)cyclohex-2-en-1-yl)acrylamide], the IC50 was 1200 nM in assay [1], 5600 nM in assay [2], 110 nM in assay [3] and less than 0.3 nM in assay [4].
The matching figures for `C=CC(=O)N[C@H]1CCC[C@@H](c2ncnc3[nH]cc(-c4ccco4)c23)C1` [Comparative Example 11(a), N-((1S,3R)-3-(5-(Furan-2-yl)-7H-pyrrolo[2,3-d]pyrimidin-4-yl)cyclohexyl)acrylamide, reference compound]: 2440 nM, greater than 10000 nM, greater than 3000 nM and 21 nM.
The matching figures for `C=CC(=O)NC1CCC=C(c2ncnc3[nH]cc(-c4ccco4)c23)C1` (stereo not drawn) [Compound 5, N-(3-(5-(Furan-2-yl)-7H-pyrrolo[2,3-d]pyrimidin-4-yl)cyclohex-3-en-1-yl)acrylamide]: 430 nM, 720 nM, 38 nM and less than 0.3 nM.
As for `C=CC(=O)N[C@H]1CCC[C@H](c2ncnc3[nH]cc(-c4ccco4)c23)C1` [Comparative Example 11(b), N-((1S,3S)-3-(5-(Furan-2-yl)-7H-pyrrolo[2,3-d]pyrimidin-4-yl)cyclohexyl)acrylamide, reference compound], the IC50 in assay [1] was 880 nM; in assay [2], greater than 10000 nM; in assay [3], 1940 nM; in assay [4], 19 nM.
For the molecule `C=CC(=O)NC1C=C(c2ncnc3[nH]cc(-c4cccs4)c23)CCC1` (stereo not drawn) [Compound 13, N-(3-(5-(Thiophen-2-yl)-7H-pyrrolo[2,3-d]pyrimidin-4-yl)cyclohex-2-en-1-yl)acrylamide], the 50% inhibitory concentration (IC50) in assay [1] was 490 nM; in assay [2], 3200 nM; in assay [3], 110 nM; in assay [4], less than 0.3 nM.
Take `C=CC(=O)Nc1cccc(-c2ncnc3[nH]cc(-c4ccccc4)c23)c1` [Comparative Example 12, N-(3-(5-Phenyl-7H-pyrrolo[2,3-d]pyrimidin-4-yl)phenyl)acrylamide, reference compound]: the IC50 in assay [1] is greater than 1000 nM; in assay [2], greater than 1000 nM; in assay [3] it was 546 nM; in assay [4], 0.09 nM. For the same molecule, the “suppression of IFN-γ production in vivo” value in assay [5] was “did not exhibit such a significant IFN-γ production-suppressing action”.
Consider `C=CC(=O)NC1CC=C(c2ncnc3[nH]cc(-c4ccco4)c23)C1` (stereo not drawn) [Compound 8, N-(3-(5-(Furan-2-yl)-7H-pyrrolo[2,3-d]pyrimidin-4-yl)cyclopent-3-en-1-yl)acrylamide], for which the IC50 was 430 nM in assay [1], 1400 nM in assay [2], 83 nM in assay [3] and less than 0.3 nM in assay [4].

These data come from patent US10421760B2, “Pyrrolo[2,3-d]pyrimidine compound or salt thereof” (TAIHO PHARMACEUTICAL CO., LTD., priority 2015, dated 2019).
